# In PubChem BioAssay (NCI):
#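 The compound was tested at five concentrations on cells cultured in 96-well plates, with a 48-hour exposure period. GI50 marks 50% less growth. Definition used: TGI = concentration required for complete inhibition of growth.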
# How the values were obtained:
# Experiment in all cases: inhibition of tumour cell growth, NCI panel, 48 h
# [1] = tested on: HOP-62 NSCLC
# [2] = tested on: TK-10 renal
# [3] = tested on: HOP-92 NSCLC
# [4] = tested on: COLO 205 colon
# [5] = tested on: OVCAR-5 ovarian
# [6] = tested on: MALME-3M melanoma
# [7] = tested on: MCF7 breast
# [8] = tested on: HL-60(TB) leukemia
# [9] = tested on: UO-31 renal
# [10] = tested on: OVCAR-3 ovarian
# [11] = tested on: EKVX NSCLC
# [12] = tested on: OVCAR-4 ovarian
# [13] = tested on: A498 renal
# [14] = tested on: NCI/ADR-RES ovarian
# [15] = tested on: ACHN renal
# [16] = tested on: KM12 colon
# [17] = tested on: HT29 colon
# [18] = tested on: SR leukemia
# [19] = tested on: HCC-2998 colon
# [20] = tested on: SF-295 CNS
# [21] = tested on: A549 NSCLC
# [22] = tested on: SK-MEL-2 melanoma
# [23] = tested on: 786-0 renal
# [24] = tested on: NCI-H522 lung
# [25] = tested on: SF-268 CNS
# [26] = tested on: MOLT-4 leukemia
# [27] = tested on: T-47D breast
# [28] = tested on: M14 melanoma
# [29] = tested on: K-562 leukemia
# [30] = tested on: CAKI-1 renal
# [31] = tested on: BT-549 breast
# [32] = tested on: MDA-MB-231 breast
# [33] = tested on: HCT-116 colon
# [34] = tested on: NCI-H226 lung
# [35] = tested on: SN12C renal
# [36] = tested on: PC-3 prostate
# [37] = tested on: U251 CNS
# [38] = tested on: UACC-257 melanoma
# [39] = tested on: RPMI-8226 leukemia
# [40] = tested on: MDA-MB-435
# [41] = tested on: IGROV1 ovarian
# [42] = tested on: SK-MEL-28 melanoma
# [43] = tested on: MDA-MB-468 breast
# [44] = tested on: SW-620 colon
# [45] = tested on: HS 578T breast
# [46] = tested on: SK-OV-3 ovarian
# [47] = tested on: SF-539 CNS
# [48] = tested on: LOX IMVI melanoma
# [49] = tested on: DU-145 prostate
# [50] = tested on: UACC-62 melanoma
# [51] = tested on: OVCAR-8 ovarian
# [52] = tested on: SNB-19 CNS
# [53] = tested on: SK-MEL-5 melanoma
# [54] = tested on: HCT-15 colon
# [55] = tested on: NCI-H23 lung
# [56] = tested on: NCI-H460 lung
# [57] = tested on: CCRF-CEM leukemia
# [58] = tested on: RXF 393 renal
smiles,measurement,setting,value
O=S(=O)(Nc1cccc(-n2cnc3cc(-c4ccc(O)cc4)ccc32)c1)C1CC1,GI50,[1],4.63 µM
same,TGI,[1],19.4 µM
same,GI50,[2],8.98 µM
same,TGI,[2],20.9 µM
same,GI50,[3],1.43 µM
same,TGI,[3],8.43 µM
same,GI50,[4],3.17 µM
same,TGI,[4],11.1 µM
same,GI50,[5],6.77 µM
same,TGI,[5],20.6 µM
same,GI50,[6],3.54 µM
same,TGI,[6],18.4 µM
same,GI50,[7],1.96 µM
same,TGI,[7],16.8 µM
same,GI50,[8],1.38 µM
same,TGI,[8],5.63 µM
same,GI50,[9],2.19 µM
same,TGI,[9],13.9 µM
same,GI50,[10],2.14 µM
same,TGI,[10],10.3 µM
same,GI50,[11],6.56 µM
same,TGI,[11],21.6 µM
same,GI50,[12],4.03 µM
same,TGI,[12],17.3 µM
same,GI50,[13],3.31 µM
same,TGI,[13],10.4 µM
same,GI50,[14],3.52 µM
same,TGI,[14],36.5 µM
same,GI50,[15],4.86 µM
same,TGI,[15],16.8 µM
same,GI50,[16],0.654 µM
same,TGI,[16],13.2 µM
same,GI50,[17],2.6 µM
same,TGI,[17],8.59 µM
same,GI50,[18],0.391 µM
same,TGI,[18],65.5 µM
same,GI50,[19],4.4 µM
same,TGI,[19],19.6 µM
same,GI50,[20],2.36 µM
same,TGI,[20],11.4 µM
same,GI50,[21],4.04 µM
same,TGI,[21],17.1 µM
same,GI50,[22],2.87 µM
same,TGI,[22],14.5 µM
same,GI50,[23],4.7 µM
same,TGI,[23],16.9 µM
same,GI50,[24],0.82 µM
same,TGI,[24],3.66 µM
same,GI50,[25],3.79 µM
same,TGI,[25],17.2 µM
same,GI50,[26],2.01 µM
same,TGI,[26],14.1 µM
same,GI50,[27],2.73 µM
same,TGI,[27],14.5 µM
same,GI50,[28],2.36 µM
same,TGI,[28],17.6 µM
same,GI50,[29],0.546 µM
same,TGI,[29],> 100 µM
same,GI50,[30],3.25 µM
same,TGI,[30],14.6 µM
same,GI50,[31],2.59 µM
same,TGI,[31],12.5 µM
same,GI50,[32],3.4 µM
same,TGI,[32],20.8 µM
same,GI50,[33],2.82 µM
same,TGI,[33],15.3 µM
same,GI50,[34],6.23 µM
same,TGI,[34],27.8 µM
same,GI50,[35],3.7 µM
same,TGI,[35],15.1 µM
same,GI50,[36],3.2 µM
same,TGI,[36],17 µM
same,GI50,[37],2.65 µM
same,TGI,[37],13.8 µM
same,GI50,[38],10.2 µM
same,TGI,[38],22 µM
same,GI50,[39],2.83 µM
same,TGI,[39],9.46 µM
same,GI50,[40],0.311 µM
same,TGI,[40],1.33 µM
same,GI50,[41],4.58 µM
same,TGI,[41],17.7 µM
same,GI50,[42],6.68 µM
same,TGI,[42],20 µM
same,GI50,[43],1.44 µM
same,TGI,[43],6.58 µM
same,GI50,[44],1.5 µM
same,TGI,[44],17.4 µM
same,GI50,[45],1.93 µM
same,TGI,[45],7.42 µM
same,GI50,[46],3.84 µM
same,TGI,[46],13.4 µM
same,GI50,[47],1.53 µM
same,TGI,[47],6.1 µM
same,GI50,[48],3.14 µM
same,TGI,[48],14.7 µM
same,GI50,[49],4.19 µM
same,TGI,[49],15 µM
same,GI50,[50],1.62 µM
same,TGI,[50],14.3 µM
same,GI50,[51],3.23 µM
same,TGI,[51],14.5 µM
same,GI50,[52],5.95 µM
same,TGI,[52],19.8 µM
same,GI50,[53],3.13 µM
same,TGI,[53],14.1 µM
same,GI50,[54],1.62 µM
same,TGI,[54],14.1 µM
same,GI50,[55],5.04 µM
same,TGI,[55],20.6 µM
same,GI50,[56],3.03 µM
same,TGI,[56],13 µM
same,GI50,[57],2.62 µM
same,TGI,[57],14.5 µM
same,GI50,[58],2.19 µM
same,TGI,[58],7.7 µM
